Source: patent publication US9121859B2, “Compounds and methods for determination of FKBP-binding immunosuppressant drugs” (Siemens Healthcare Diagnostics Inc., priority 2012, dated 2015)

Columns and labels:
[1] = test system: endogenous specific binding proteins (FKBP) in whole blood; test: ACMIA assay for sirolimus: release of sirolimus from endogenous binding substances in spiked whole blood by releasing agent; conditions: for Drug concentration measured / Percent (%) displaced vs. SIRO: releasing agent 10 μg/mL
Experimental: (§1) Testing was carried out using the DIMENSION® RxL analyzer, available from Siemens Healthcare Diagnostics Inc., Newark Del. The instrument was employed using ACMIA immunoassay technology. The ACMIA assay method is described in U.S. Pat. Nos. 7,842,475, 7,186,518, 5,147,529, 5,128,103, 5,158,871, 4,661,408, 5,151,348, 5,302,532, 5,422,284, 5,447,870, and 5,434,051, the disclosures of which are incorporated herein in their entirety. In the embodiment of the ACMIA method used herein and discussed in more detail below, competition between tacrolimus analog on chrome particles and tacrolimus in patient samples for antibody for tacrolimus conjugated to an enzyme (the “conjugate”) is utilized to determine the amount of tacrolimus in patient samples. Conjugate that binds to the tacrolimus analog on chrome particles is removed by magnetic separation. The enzymatic activity from the conjugate remaining in the supernatant is measured and is directly proportional to the amount of tacrolimus in the patient sample. […] The enzymatic activity observed when no chrome particle is present is indicative of the total amount of enzymatic activity in the conjugate.
(§2) Preparation of pretreatment reagent solution. This pretreatment solution was prepared to contain an amount of releasing agent, 6.8 mg/mL PIPES 1.5 sodium salt (buffer), 0.3 mg/mL EDTA disodium (clot prevention agent), 1.0 mg/mL saponin (hemolytic agent), 0.2% PROCLIN® 300 (preservative), 0.024 mg/mL neomycin sulfate (preservative) and 0.99 mg/mL NaN3, pH 6.5. The amount of releasing agent in each of the pretreatment reagent solutions was 10 μg/mL. The releasing agent concentration in the final reaction mixture was equivalent to 46.7 μg/mL of the analog added from the sample.
Preparation of anti-sirolimus antibody-β-galactosidase conjugate. […] The antibody conjugate solution contained approximately 7.5 μg/mL anti-sirolimus antibody-β-galactosidase conjugate, 30 mg/mL protease free bovine serum albumin, 0.126 mg/mL MgCl2, 0.03 mL/mL of ethylene glycol, 35.14 mg/mL PIPES 1.5 sodium salt, 50 mg/mL NaCl and beta-gal mutein (inactivated β-galactosidase), pH 6.5.
Magnetic chrome particle preparation. Sirolimus chrome particles (immunoassay solid phase) were prepared by conjugating sirolimus-biotin conjugate to streptavidin-coated chrome particle (prepared in a manner similar to that described in U.S. Pat. No. 7,842,475). The chrome particle reagent contained approximately 2.5 mg/mL sirolimus chrome particle slurry, 60.8 mg/mL trehalose dihydrate and 7.2 mg/mL CARBOWAX®.
(§3) Preparation of samples. Aliquots of a whole blood pool are spiked with an amount of sirolimus so that the resulting concentration of sirolimus in the whole blood samples in the calibrators is as set forth in Table 1 (0.0, 5.1, 10.1, 20.6 and 31.6 ng/mL). Aliquots of a whole blood pool are spiked with an amount of tacrolimus so that the resulting concentration of […] (0.0, 2.6, 5.3, 11.6 and 30.1 ng/mL).
(§4) Pretreatment of samples. A set of samples was treated as follows: To each sample was added an amount of the pretreatment reagent solution from above for displacing sirolimus in the sample from endogenous specific binding proteins. The samples were incubated at 37° C. for a period of 140 minutes. Subsequently, each sample was subjected to the aforementioned assay, which is further described below; and signal (mAU) was measured and related to a concentration of analyte that represents the amount of free analyte (analyte that is not bound by endogeneous binding substances plus analyte that was displaced from endogeneous binding substances) in the samples.
Assay. The ACMIA assay for sirolimus was carried out as follows: 15 μL of a whole blood sample from above was mixed with the pretreatment reagent solution from above (Displacer) (Table 1) in a vessel on the DIMENSION® RxL analyzer.

[2] = test system: monoclonal anti-sirolimus antibody (clone 155-M1); test: Calculated cross-reactivity of releasing agent with antibody of the sirolimus ACMIA assay; assay type: binding
Experimental: (§5) Preparation of anti-sirolimus antibody-β-galactosidase conjugate. Monoclonal anti-sirolimus antibody (clone 155-M1 from Wyeth Pharmaceutical) was conjugated to β-galactosidase using a standard heterobifunctional SMCC (succinimidyl trans-4-(N-maleimidylmethyl)cyclohexane-1-carboxylate) linker according to known techniques. The antibody conjugate solution contained approximately 7.5 μg/mL anti-sirolimus antibody-β-galactosidase conjugate, 30 mg/mL protease free bovine serum albumin, 0.126 mg/mL MgCl2, 0.03 mL/mL of ethylene glycol, 35.14 mg/mL PIPES 1.5 sodium salt, 50 mg/mL NaCl and beta-gal mutein (inactivated β-galactosidase), pH 6.5.
(§6) Anti-sirolimus antibody-β-galactosidase conjugate (50 μL) was added next to each of the reaction vessels and the mixture was held for a period of time (10 to 15 minutes) and at a temperature of 43° C. to allow sirolimus, if present, to react with the antibody reagent. Chrome particles with immobilized sirolimus-biotin conjugate to streptavidin-coated chrome particle were added (50 μL) to each of the reaction vessels and were allowed to bind un-bound conjugate. […] The sirolimus-bound conjugate was detected by transferring the supernatant from each of the reaction vessels to a photometric cuvette and measuring the enzymatic rate of the conjugate in the presence of chlorophenol red-β-D-galactopyranoside (CPRG). The rate for each reaction vessel was measured bichromatically at 577 and 700 nm. The results are summarized in Table 1 under the categories: instrument signal observed for calibrators, drug concentration measured in ng/mL, percent (%) displaced vs. SIRO and calculated antibody cross-reactivity (percent (%) times 100). Cross-reactivity was based on the following: • 1) 70 μL of pretreatment reagent solution was added to the reaction medium versus 15 μL of sample, total reaction mixture volume=305 μL. • 2) 10 μg/mL of SIRO analog was in the pretreatment reagent solution. • 3) 10 μg/mL of SIRO analog from pretreatment reagent is equivalent to 46.7 μg/mL of SIRO analog added from sample (Calculation: 70 μL×10 μg/mL/15 μL=46.7 μg/mL) • 4) Measured sirolimus value at 0 ng/mL calibrator. • 5) Measure value/46.7 is % cross-reactivity.

[3] = test system: endogenous specific binding proteins (FKBP) in whole blood; test: ACMIA assay for tacrolimus: release of tacrolimus from endogenous binding substances in spiked whole blood by releasing agent; conditions: for Drug concentration measured / Percent (%) displaced vs. SIRO: releasing agent 10 μg/mL
Experimental: as §1, §2
as §5, with “anti-tacrolimus” for “anti-sirolimus”, “1H6, see for example U.S. Pat. No. 7,078,495) is” for “155-M1 from Wyeth Pharmaceutical) was”, “contains” for “contained”
The chrome particle reagent contained approximately 2.5 mg/mL tacrolimus chrome particle slurry, 60.8 mg/mL trehalose dihydrate and 7.2 mg/mL CARBOWAX®.
as §3, §4
The above format for releasing an analyte (using the concentration of releasing agent (Displacer) shown) and conducting an assay for the analyte was repeated for samples containing tacrolimus.

[4] = test system: monoclonal anti-tacrolimus antibody (clone 1H6); test: Calculated cross-reactivity of releasing agent with antibody of the tacrolimus ACMIA assay; assay type: binding; conditions: measured at calibrator of 0 ng/mL
Experimental: as §5, with “anti-tacrolimus” for “anti-sirolimus”, “1H6, see for example U.S. Pat. No. 7,078,495) is” for “155-M1 from Wyeth Pharmaceutical) was”, “contains” for “contained”
as §6, with “reagent.” for “reagent. Chrome particles with immobilized sirolimus-biotin conjugate to streptavidin-coated chrome particle were added (50 μL) to each of the reaction vessels and were allowed to bind un-bound conjugate.”, “cross-reactivity. […]” for “cross-reactivity.”

[5] = sirolimus calibrator 10.1 ng/mL
[6] = sirolimus calibrator 20.6 ng/mL
[7] = sirolimus calibrator 31.6 ng/mL
[8] = tacrolimus calibrator 2.6 ng/mL
[9] = tacrolimus calibrator 5.3 ng/mL
[10] = tacrolimus calibrator 11.6 ng/mL
[11] = tacrolimus calibrator 30.1 ng/mL

## Diels-Alder adducts of diethyl azidodicarboxylate (DAC) and sirolimus [Mixture IX + X]
[1]; sirolimus assay, result in words
  Displacement efficiency compared with mixture of V and VI: lower displacement efficiency
[1]; sirolimus calibrator 0.0 ng/mL
  Drug concentration measured: 69.2 ng/mL
[1]; sirolimus calibrator 5.1 ng/mL
  Drug concentration measured: 93.8 ng/mL
  Percent (%) displaced vs. SIRO: 1844%
[1]; [5]
  Drug concentration measured: 100.7 ng/mL
  Percent (%) displaced vs. SIRO: 994%
[1]; [6]
  Drug concentration measured: 119.9 ng/mL
  Percent (%) displaced vs. SIRO: 584%
[1]; [7]
  Drug concentration measured: 113.0 ng/mL
  Percent (%) displaced vs. SIRO: 357%
[2]; result in words
  Cross-reactivity with the sirolimus assay antibody: higher cross-reactivity
[2]; sirolimus assay, measured at calibrator of 0 ng/mL, measured value/46.7 μg/mL analog
  Calculated antibody cross-reactivity (percent (%) times 100): 14.82 % × 100
[3]; tacrolimus assay, result in words
  Displacement efficiency compared with mixture of V and VI: lower displacement efficiency
[3]; tacrolimus calibrator 0.0 ng/mL
  Drug concentration measured: 0.0 ng/mL
[3]; [8]
  Drug concentration measured: 2.4 ng/mL
  Percent (%) displaced vs. SIRO: 90%
[3]; [9]
  Drug concentration measured: 4.1 ng/mL
  Percent (%) displaced vs. SIRO: 78%
[3]; [10]
  Drug concentration measured: 9.2 ng/mL
  Percent (%) displaced vs. SIRO: 79%
[3]; [11]
  Drug concentration measured: 22.6 ng/mL
  Percent (%) displaced vs. SIRO: 75%
[4]
  Calculated antibody cross-reactivity (percent (%) times 100): 0.01 % × 100
